Source: patent US7976843B2, “Method for screening peptides for use in immunotherapy” (Institut National de la Santa et de la Recherche Medicale …, priority 2000, dated 2011)

Test system: RMA-HHD cells infected with vac-HIVgag, vac-neu, vac-gp100 or flu PR8
Parameters: species or system HHD mice
Conditions: mouse, in vivo

Sequence	killing of RMA-HHD cells infected with virus expressing the antigen vs vac-WT
ILLVVVLGV [HER-2/neu 661]	exception
PLTSIISAV [HER-2/neu 650]	kill target cells infected with vac-neu, but not targets infected with vac-WT
